US20260198497A1, “A BENZENE RING-SUBSTITUTED PYRIMIDINECARBOXYLIC ACID COMPOUND, PREPARATION METHOD THEREFOR, HERBICIDAL COMPOSITION AND APPLICATION THEREOF” (QINGDAO KINGAGROOT CHEMICAL COMPOUND CO., LTD., priority 2023, published 2026)

Experiments:
Veronica [1] = assay: Activity assay of compositions, post-emergence spray of stems and leaves; type: in vivo; settings: 21 days
Method: The required active ingredient B was purchased from a reagent company or a technical material manufacturer or synthesized by a conventional method. […] The technical materials were all dissolved with acetone solvents and diluted with aqueous solution of 0.1% Tween® 80 emulsifier, which should be used immediately after dilution.
(§1) Weeds were cultivated by a pot culture method. […] Weed seeds with plump and uniform grains were selected, soaked in lukewarm water at 25° C. for 6 hours, and accelerated to germinate in a 28° C. biochemical incubator (in darkness). The weed seeds that had just germinated were evenly placed on the surface of the soil and then covered with 0.5-1 cm soil according to the sizes of seeds.
(§2) Each treatment was repeated 4 times for 3 pots. Each pot was seeded with 20 weed seeds.
(§3) The drugs were applied once in total in the experiment. When at the stage of 1.5-2 leaves, the weeds were thinned out to maintain 10 strains per pot. Thirty strains were kept in each treatment and then continued to be cultured until the Erigeron canadensis reached 10 cm tall and other weeds in their 3-4 leaf stage for further treatment.
(§4) The well-cultured test materials were evenly placed on a 0.5 m^2 platform and foliage-sprayed by the 3WP-2000-type walking spray tower at a dosage of […] and a spray pressure of 0.3 MPa. After all the drug solution was sprayed, the air valve was closed. And 30 seconds later, the door of the spray tower was opened, and the nutritional bowl was taken out. Next, the air valve was opened, and the spray tube was cleaned by spraying 50 ml of water. The test materials were transferred to and routinely cultured in a greenhouse after the treatment.
(§5) A method for investigating absolute numbers was employed. The whole seedlings of the survival weeds were cut along the soil surface with a blade, and the fresh weight of the weeds was weighed by an analytical balance. For dead weeds, the fresh weight thereof was considered zero.
(§6) The investigation was performed 21 days after the treatment for once in total.
The theoretical fresh weight inhibition rate of a mixed combination of each treatment was calculated by the Gowing method (E0=X+Y−X*Y/100). […] An optimal ratio was determined according to factors such as the actual control effects, characteristics of herbicides, balance of the formulation, etc. In the formula, X represents the fresh weight inhibition rate of the active ingredient A in a dosage of P; Y represents the fresh weight inhibition rate of the active ingredient B in a dosage of Q. The statistical results are shown in Table 5 below.

Euphorbia helioscopia = assay: as above; type: in vivo; settings: 21 days
Description: The required active ingredient B was purchased from a reagent company or a technical material manufacturer or synthesized by a conventional method. The active ingredient A was Compound 74 in Table 1. The technical materials were all dissolved with acetone solvents and diluted with aqueous solution of 0.1% Tween® 80 emulsifier, which should be used immediately after dilution.
as §1
The weeds were cultured in a controllable sunlight greenhouse at 20-30° C., in natural light, and with relative humidity of 57%-72%. The soil was loam with an organic matter content of 1.63%, a pH value of 7.1, alkali-hydrolyzable nitrogen of 84.3 mg/kg, rapidly available phosphorus of 38.5 mg/kg, and rapidly available potassium of 82.1 mg/kg.
as §2, §3, §4, §5, §6
The theoretical fresh weight inhibition rate of a mixed combination of each treatment was calculated by the Gowing method (E0=X+Y−X*Y/100). Then compared with the measured inhibition rate (E), the type of the combined action of the combination of the two on weeds was evaluated, which was a synergistic effect when E−E0>10; an antagonistic effect when E−E0<−10%; an additional effect when −10≤E−E0≤[…]. An optimal ratio was determined according to factors such as the actual control effects, characteristics of herbicides, balance of the formulation, etc. In the formula, X represents the fresh weight inhibition rate of the active ingredient A in a dosage of P; Y represents the fresh weight inhibition rate of the active ingredient B in a dosage of Q. The statistical results are shown in Table 5 below.

Veronica [2] = assay: Post-emergence test on weeds; type: in vivo; design: key: 0 = no effect, 9 = completely dead (levels by growth control rate); settings: 30 g a.i./ha, 3 weeks after application
Description: (§7) The criteria for activity levels of plant damage (i.e., growth control rate) are as follows: • Level 9: completely dead; • Level 8: growth control rate is greater than or equal to 90% and less than 100%; • Level 7: growth control rate is greater than or equal to 80% and less than 90%; • Level 6: growth control rate is greater than or equal to 70% and less than 80%; • Level 5: growth control rate is greater than or equal to 50% and less than 70%; • Level 4: growth control rate is greater than or equal to 30% and less than 50%; • Level 3: growth control rate is greater than or equal to 20% and less than 30%; • Level 2: growth control rate is greater than or equal to 10% and less than 20%; • Level 1: growth control rate is less than 10%; • Level 0: no effect.
(§8) The above growth control rates are fresh weight control rates.
(§9) Monocotyledonous and dicotyledonous weed seeds (Descurainia sophia, Capsella bursa-pastoris, Abutilon theophrasti, Galium spurium, Stellaria media, Lithospermum arvense, Rorippa indica, Alopecurus aequalis, Alopecurus japonicus, Eleusine indica, Beckmannia syzigachne, Sclerochloa dura, Erigeron canadensis, Phleum paniculatum, Veronica, Bromus japonicus, Aegilops tauschii, Phalaris arundinacea, Amaranthus retroflexus, Chenopodium, Commelina communis, Cichorium endivia, Convolvulus arvensis, Cirsium arvense, Solanum nigrum, Acalypha australis, Digitaria sanguinalis, Echinochloa crusgalli, Setaria viridis, Setaria pumila, Leptochloa chinensis, Monochoria vaginalis, Sagittaria trifolia, Schoenoplectiella juncoides, Cyperus rotundus, Cyperus iria, Cyperus difformis, Fimbristylis, Portulaca oleracea, Xanthium sibiricum, Ipomoea nil, Eschenbachia japonica, etc.) and major crop seeds (wheat, maize, paddy rice, soybean, cotton, oilseed rape, millet, sorghum, potato, sesame, castor plant, Chinese cabbage, radish, etc.) were placed in plastic pots filled with soil and then covered with 0.5-2 cm of soil to allow them to grow in a favorable greenhouse environment. Two weeks after sowing, the test plants were treated at the stage of 2-3 leaves. The test compounds of the present invention were individually dissolved with acetone, then added with Tween® 80, with 1.5 L/ha of methyl oleate emulsifiable concentrate as a synergist, diluted into solution of a certain concentration using a certain amount of water, and sprayed to plants using a spray tower. After drug application, the experimental results on weeds were collected after 3 weeks of cultivation in a greenhouse. The compounds were applied at 120, 60, 30, and 15 g a.i./ha in triplicate, and the results were averaged.

Paddy rice = assay: Post-emergence test, crop safety; settings: in vivo, 3 weeks
Description: as §7, §8, §9

Wheat = assay: Post-emergence test, crop safety; settings: in vivo, 3 weeks
Description: as §7, §8, §9

## COc1ncc(F)c2nc(S(=O)(=O)Nc3c(F)cccc3F)nn12 [Florasulam, florasulam]
Veronica [1]; B 3 g a.i./ha
  Control effect of B applied alone in a corresponding dose (%): 15.7%
Veronica [1]; B 6 g a.i./ha
  Control effect of B applied alone in a corresponding dose (%): 28.1%

## Cn1[nH]c(C2CC2)c(C(=O)c2ccc(C(F)(F)F)c(N3CCCCC3=O)c2Cl)c1=O [Cypyrafluone, cypyrafluone]
Euphorbia helioscopia; B 15 g a.i./ha
  Control effect of B applied alone in a corresponding dose (%): 34.7%
Euphorbia helioscopia; B 30 g a.i./ha
  Control effect of B applied alone in a corresponding dose (%): 55.2%

## Cc1nn(C)cc1C(=O)Oc1c(C(=O)c2ccc(C(F)(F)F)cc2S(C)(=O)=O)c(C)nn1C [Bipyrazone, bipyrazone]
Euphorbia helioscopia; B 7.5 g a.i./ha
  Control effect of B applied alone in a corresponding dose (%): 37.1%
Euphorbia helioscopia; B 15 g a.i./ha
  Control effect of B applied alone in a corresponding dose (%): 55.8%

## CCOC(=O)Cn1c(=O)sc2cccc(Cl)c21 [Benazolinethyl, benazolin-ethyl]
Veronica [1]; B 75 g a.i./ha
  Control effect of B applied alone in a corresponding dose (%): 24.0%
Veronica [1]; B 150 g a.i./ha
  Control effect of B applied alone in a corresponding dose (%): 35.2%

## Nc1cc(Cl)nc(C(=O)O)c1Cl [Aminopyralid, aminopyralid]
Veronica [1]; B 30 g a.i./ha
  Control effect of B applied alone in a corresponding dose (%): 18.0%
Veronica [1]; B 60 g a.i./ha
  Control effect of B applied alone in a corresponding dose (%): 39.7%

## COc1c(N)nc(-c2ccc(Br)c(OC)c2F)nc1C(=O)SC [Compound 221]
Veronica [2]
  activity level of plant damage (growth control rate), Veronica: 9
Paddy rice
  activity level of plant damage (growth control rate), Paddy rice: 0
Wheat
  activity level of plant damage (growth control rate), Wheat: 0

## COC(=O)c1nc(-c2ccc(Cl)c(OC)c2F)cc(N)c1Cl [Halauxifenmethyl, halauxifen-methyl]
Veronica [1]; B 1.5 g a.i./ha
  Control effect of B applied alone in a corresponding dose (%): 22.8%
Veronica [1]; B 3 g a.i./ha
  Control effect of B applied alone in a corresponding dose (%): 43.1%

## CC1(C)CON(Cc2ccc(Cl)cc2Br)C1=O
Euphorbia helioscopia; B 60 g a.i./ha
  Control effect of B applied alone in a corresponding dose (%): 25.7%
Euphorbia helioscopia; B 120 g a.i./ha
  Control effect of B applied alone in a corresponding dose (%): 44.6%

## Cc1cc(Cl)ccc1OCC(=O)OCCCCCC(C)C [MCPA-isooctyl]
Veronica [1]; B 150 g a.i./ha
  Control effect of B applied alone in a corresponding dose (%): 23.5%
Veronica [1]; B 300 g a.i./ha
  Control effect of B applied alone in a corresponding dose (%): 40.8%

## COc1c(Cl)ccc(-c2nc(C(=O)OCc3ccccc3)c(Cl)c(N)c2F)c1F [Florpyrauxifenbenzyl, florpyrauxifen-benzyl]
Veronica [1]; B 3 g a.i./ha
  Control effect of B applied alone in a corresponding dose (%): 20.1%
Veronica [1]; B 6 g a.i./ha
  Control effect of B applied alone in a corresponding dose (%): 45.8%
